Results as given in patent publication US10596171B2, “Cap-dependent endonuclease inhibitors” (priority 2018, dated 2020).

System: influenza B virus
Test: microbe, parasite or virus in culture
Format: cell-based
Settings: MDCK, 72 h, read-out: EC50 (reduce virus-induced CPE by 50%)

Row | SMILES | EC50 [nM]
1 | O=C1c2c(O)c(=O)ccn2N(C2c3ccccc3SCc3c(F)cccc32)CC12CC2 (stereo not drawn) [Compound 1, 1-(1-Fluoro-5,11-dihydro-10-thia-dibenzo[a,d]cyclohepten-5-yl)-5-hydroxy-3,3-cyclopropyl-2,3-dihydro-1H-pyrido[1,2-b]pyridazine-4,6-dione] | 100 to 1000
2 | O=C1c2c(O)c(=O)ccn2N(C2c3ccccc3SCc3c2ccc(F)c3F)CC12CC2 (stereo not drawn) [Compound 2] | < 100
3 | O=C1c2c(O)c(=O)ccn2N(C2c3ccc(F)cc3CSc3c(Cl)cccc32)CC12CC2 (stereo not drawn) [Compound 3] | < 100
4 | O=C1c2c(O)c(=O)ccn2N(C2c3ccc(Cl)cc3CSc3ccccc32)CC12CC2 (stereo not drawn) [Compound 4] | < 100
5 | O=C1c2c(O)c(=O)ccn2N(C2c3ccc(F)cc3CSc3c(F)cccc32)CC12CC2 (stereo not drawn) [Compound 5] | < 100
6 | Cc1cccc2c1SCc1cc(Cl)ccc1C2N1CC2(CC2)C(=O)c2c(O)c(=O)ccn21 (stereo not drawn) [Compound 6] | 100 to 1000
7 | Cc1cccc2c1SCc1cc(F)ccc1C2N1CC2(CC2)C(=O)c2c(O)c(=O)ccn21 (stereo not drawn) [Compound 7] | < 100
8 | O=C1c2c(O)c(=O)ccn2N(C2c3ccc(F)cc3CSc3ccccc32)CC12CC2 (stereo not drawn) [Compound 8] | < 100
9 | O=C1c2c(O)c(=O)ccn2N(C2c3ccccc3CSc3c(F)cccc32)CC12CC2 (stereo not drawn) [Compound 9] | < 100
10 | Cc1cccc2c1SCc1c(F)cccc1C2N1CC2(CC2)C(=O)c2c(O)c(=O)ccn21 (stereo not drawn) [Compound 10] | 100 to 1000
11 | Cc1cccc2c1SCc1ccccc1C2N1CC2(CC2)C(=O)c2c(O)c(=O)ccn21 (stereo not drawn) [Compound 11] | 100 to 1000
12 | O=C1c2c(O)c(=O)ccn2N(C2c3cccc(F)c3CSc3c(Cl)cccc32)CC12CC2 (stereo not drawn) [Compound 12] | 100 to 1000
13 | O=C1c2c(O)c(=O)ccn2N(C2c3ccccc3CSc3c(Cl)cccc32)CC12CC2 (stereo not drawn) [Compound 13] | 100 to 1000
14 | O=C1c2c(O)c(=O)ccn2N(C2c3ccc(Cl)cc3CSc3c(F)cccc32)CC12CC2 (stereo not drawn) [Compound 14] | < 100
15 | O=C1c2c(O)c(=O)ccn2N(C2c3ccc(F)cc3COc3c(Cl)cccc32)CC12CC2 (stereo not drawn) [Compound 15] | < 100
16 | Cc1cccc2c1SCc1c(ccc(F)c1F)C2N1CC2(CC2)C(=O)c2c(O)c(=O)ccn21 (stereo not drawn) [Compound 16] | 100 to 1000
17 | O=C1c2c(O)c(=O)ccn2N(C2c3ccc(F)c(F)c3CSc3c(F)cccc32)CC12CC2 (stereo not drawn) [Compound 17] | < 100
18 | O=C1c2c(O)c(=O)ccn2N(C2c3ccc(F)c(F)c3CSc3c(Cl)cccc32)CC12CC2 (stereo not drawn) [Compound 18] | 100 to 1000
19 | O=C1c2c(O)c(=O)ccn2N(C2c3ccccc3SCc3c2ccc(Cl)c3F)CC12CC2 (stereo not drawn) [Compound 19] | 100 to 1000
20 | CC1CC12CN(C1c3ccccc3SCc3c1ccc(F)c3F)n1ccc(=O)c(O)c1C2=O (stereo not drawn) [Compound 20] | 100 to 1000

Row | SMILES | EC50 [nM]
21 | CC1N(C2c3ccccc3SCc3c2ccc(F)c3F)n2ccc(=O)c(O)c2C(=O)C12CC2 (stereo not drawn) [Compound 21] | 100 to 1000
22 | CCC1N(C2c3ccccc3SCc3c2ccc(F)c3F)n2ccc(=O)c(O)c2C(=O)C12CC2 (stereo not drawn) [Compound 22] | 100 to 1000
23 | O=C1c2c(O)c(=O)ccn2N(C2c3ccc(Cl)c(F)c3CSc3c(Cl)cccc32)CC12CC2 (stereo not drawn) [Compound 23] | 100 to 1000
24 | O=C1c2c(O)c(=O)ccn2N(C2c3ccc(Cl)c(F)c3CSc3c(F)cccc32)CC12CC2 (stereo not drawn) [Compound 24] | < 100
25 | C=CC1N(C2c3ccccc3SCc3c2ccc(F)c3F)n2ccc(=O)c(O)c2C(=O)C12CC2 (stereo not drawn) [Compound 25] | 100 to 1000
26 | CC1N(C2c3ccc(F)c(F)c3CSc3c(F)cccc32)n2ccc(=O)c(O)c2C(=O)C12CC2 (stereo not drawn) [Compound 26] | 100 to 1000
27 | Cc1cccc2c1SCc1c(ccc(F)c1F)C2N1C(C)C2(CC2)C(=O)c2c(O)c(=O)ccn21 (stereo not drawn) [Compound 27] | 100 to 1000
28 | Cc1cc(=O)c(O)c2n1N(C1c3ccccc3SCc3c1ccc(F)c3F)CC1(CC1)C2=O (stereo not drawn) [Compound 28] | 100 to 1000
29 | O=C1c2c(O)c(=O)ccn2N(C2c3ccccc3SCc3cccc(Br)c32)CC12CC2 (stereo not drawn) [Compound 29] | 100 to 1000
30 | Cc1cc(=O)c(O)c2n1N(C1c3ccc(F)c(F)c3CSc3c(F)cccc31)CC1(CC1)C2=O (stereo not drawn) [Compound 30] | 100 to 1000
31 | Cc1cccc2c1SCc1c(ccc(F)c1F)C2N1CC2(CC2)C(=O)c2c(O)c(=O)cc(C)n21 (stereo not drawn) [Compound 31] | 100 to 1000
32 | CCOC(=O)C1CC12CN(C1c3ccccc3SCc3c1ccc(F)c3F)n1ccc(=O)c(O)c1C2=O (stereo not drawn) [Compound 32] | 100 to 1000
33 | O=C(O)C1CC12CN(C1c3ccccc3SCc3c1ccc(F)c3F)n1ccc(=O)c(O)c1C2=O (stereo not drawn) [Compound 33] | 100 to 1000
34 | O=C1c2c(O)c(=O)ccn2N(C2c3ccccc3SCc3c2ccc(F)c3F)CC12CC2COCc1ccccc1 (stereo not drawn) [Compound 34] | 100 to 1000
35 | CC1CC12CN(C1c3ccc(F)c(F)c3CSc3c(F)cccc31)n1ccc(=O)c(O)c1C2=O (stereo not drawn) [Compound 35] | < 100
36 | Cc1cccc2c1SCc1c(ccc(F)c1F)C2N1CC2(CC2C)C(=O)c2c(O)c(=O)ccn21 (stereo not drawn) [Compound 36] | 100 to 1000
37 | CCC1CC12CN(C1c3ccccc3SCc3c1ccc(F)c3F)n1ccc(=O)c(O)c1C2=O (stereo not drawn) [Compound 37] | < 100
38 | COCC1CC12CN(C1c3ccccc3SCc3c1ccc(F)c3F)n1ccc(=O)c(O)c1C2=O (stereo not drawn) [Compound 38] | < 100
39 | [2H]c1c([2H])c([2H])c2c(c1[2H])SCc1c(ccc(F)c1F)[C@@H]2N1CC2(CC2)C(=O)c2c(O)c(=O)ccn21 [Compound 39] | < 100
